Experimental data as given in publication PMC4961401 (PLoS ONE, 2016).
Entries after “also recorded” stand apart in the source; their conditions may differ. Like-named read-outs stand apart in the source and are kept apart here.

Tests used:
tumor cell lines = test system: tumor cell lines; parameters: method as in PMID 26827628; settings: broad spectrum of tumor cell lines; ref [8]; cited from earlier work
caspase-3, PARP = experiment: Western blot of caspase-3 activation and PARP cleavage; format: cell-based, human; settings: A549 cells, 24 h, different concentrations
Procedure: Western blot assays were conducted as described previously. Briefly, the cellular protein samples were denatured by mixing with equal volume of 2 × sample loading buffer and then boiling at 100°C for 5 min. An aliquot (50 μg as protein) of the supernatant was loaded onto a 12% SDS gel, separated electrophoretically, and transferred to a Nitrocellulose membrane (Bio-Rad). After the membrane was incubated with 10 mM TBS with 20% Tween 20 and 5% dehydrated skim milk to block nonspecific protein binding, the membrane was incubated with primary antibodies overnight at 4°C. The primary antibodies used for detection of α1 and α3 subunit of Na+,K+-ATPase were rabbit polyclonal antibody against human ATP1A1 (55187, Proteintech, 1:1000) and ATP1A3 (sc-374050, Santa Cruz Biotechnology, 1:1000), respectively. Other primary antibodies including rabbit polyclonal antibody against human Src (#2109S, 1:1000), phosphor-Src(Tyr416) (#6943S, 1: 1000); PI3K p85 (#4257P, 1:1000), phosphor-PI3K p85(Tyr458)/p55(Tyr199) (#4228P, 1: 600), Akt (#9272, 1:1000), phosphor-Akt(Ser473) (#4060S, 1:800), Bax (#2772S, 1:1000), Pro-caspase-9 (#9502S, 1:800), Caspase-3 (#9662S, 1:800); PARP (#9542, 1:1000) and GAPDH (#2118, 1:1000) were all purchased from Cell Signaling Technology. […]

NCI-H460 cells = experiment: MTT cell proliferation assay, NCI-H460; format: cell-based; settings: Homo sapiens, NCI-H460, 72 h, read-out: IC50 values, inhibiting proliferation
Procedure: (§1) The human lung cancer A549, NCI-H460, NCI-H522 and NCI-H1299 cell lines were purchased from the Cell Resource Center of Shanghai Institutes for Biological Sciences, Chinese Academy of Sciences (Shanghai, P.R. China).
(§2) Cell proliferation was assessed using a colorimetric MTT assay as described previously [10]. […] After treatment, the viability of cells was evaluated by checking the absorbance at 570 nm.

A549 cells [1] = experiment: MTT cell proliferation assay, A549; format: cell-based; settings: Homo sapiens, read-out: IC50, cell viability (MTT)
Procedure: as §1, §2

NCI-H522 cells = experiment: MTT cell proliferation assay, NCI-H522; format: cell-based; settings: Homo sapiens; NCI-H522, 72 h treatment; read-out: IC50 values, inhibiting proliferation
Procedure: as §1, §2

caspase-3 = experiment: Caspase-3 activity assay (Ac-DEVD-pNA); format: cell-based, human; settings: A549 cells, 24 h, different concentrations
Procedure: The activity of caspase-3 was determined using a caspase-3 activity assay kit (C1115, Beyotime Biotechnology, Shanghai, China) according to the manufacturer's instructions. Briefly, after treatment with BF or BF211 at different concentrations for 24 h, the A549 cells were collected, washed with PBS and incubated with lysis buffer on ice for 15 min. After centrifugation at 2,000 g for 15 min at 4°C, the cell lysates were collected, and their protein concentrations were determined using the A280 method with a UV-Vis Spectrophotometer Q5000 (Quawell Technology, San Jose, CA, USA). Cell lysates (50 μg protein) were then added to reaction buffer containing the caspase-3 substrate Ac-DEVD-p-nitroanilide (2 mM) in 96-well microtiter plates and incubated at 37°C for 4 h. The caspase-3 activity in the samples was quantified by detecting the release of p-nitroanilide from Ac-DEVD-p-nitroanilide with a microplate spectrophotometer at 405 nm. The caspase-3 activity was expressed as the fold of enzyme activity in comparison with the control.

A549 cells [2] = experiment: Annexin V/PI flow cytometry analysis of apoptosis; format: cell-based, human; settings: 24 h treatment
Procedure: Flow cytometric analysis of the level of apoptosis was conducted using Alexa Fluor 488 Annexin V & PI /Dead Cell Apoptosis Kit (Invitrogen) according to the manufacturer’s instructions. Briefly, after the 24 h treatment with BF or BF211 at different concentrations, the cells were collected, washed with PBS and resuspended in binding buffer. Then, the cells were incubated with Annexin V-FITC and propidium iodide for 15 min in the dark at room temperature, and flow cytometric analysis was conducted. Data analysis was performed with the CellQuest software.

A549 tumor xenografts = experiment: Human A549 tumor xenograft in nude mice; format: in vivo, Balb/c-nu-nu mice; settings: i.p., qd
Procedure: Male nude immunodeficient Balb/c-nu-nu mice, aged 6–7 weeks were purchased from the Shanghai Experimental Animal Center and housed in accordance with protocols approved by the Shanghai Institute of Materia Medica, Chinese Academy of Sciences. Generally, on day 0, A549 cells (8×10^6 cells) suspended in 0.1 mL of PBS were mixed with 0.1 mL Matrigel basement membrane matrix (BD Biosciences) and then inoculated s.c. in the right flank of each mouse. Tumors were allowed to reach 100–300 mm^3 in size before treatments were adminstered. In the animal experiment, the tumor size was measured every 3–4 days using calipers and the tumor volume was calculated using the standard formula, width^2×length/2. Body weight was measured daily.
Two experiments using nude mice with A549 tumor xenografts were conducted. In the first experiment, we tried to compare the anti-cancer effects of BF and BF211 at the same concentrations. Briefly, 12 days after inoculation, the mice were randomly divided into 6 groups (6 mice in each group) and began treatment with the vehicle control (natural saline, i.p., qd); a positive control (rapamycin, 10 mg/kg, i.v., once a week); BF at 0.8 mg/kg, i.p., qd; BF at 0.4 mg/kg for 7 days, which was then increased to 1.6 mg/kg for 9 days, i.p., qd; BF211 at 0.8 mg/kg, i.p., qd; BF211 at 0.4 mg/kg for 7 days, which was then increased to 1.6 mg/kg for 9 days, i.p., qd. In the second experiment, the anti-cancer effects of BF211 were determined at higher concentrations. Briefly, 15 days after inoculation, mice were randomly divided into 5 groups (10 mice in each group) and started treatment with the vehicle control (i.p., qd); a positive control (rapamycin, 10 mg/kg, i.v., once a week); BF211 at 2 mg/kg, i.p., qd; BF211 at 4 mg/kg, i.p., qd; BF211 at 6 mg/kg, i.p., qd. No mice died during this experimental period, and all animals were euthanized by CO2 inhalation at the end of the experiment.

A549 cells [3] = experiment: Free intracellular Ca2+ level (Fluo-3 AM, flow cytometry); format: cell-based, human; settings: 50 nM
Procedure: The level of intracellular free Ca2+ in A549 cells was determined using the fluorescent dye Fluo-3 AM (S1056, Beyotime Biotechnology, Shanghai, China), which can cross the cell membrane and be cleaved into Fluo-3 by intracellular esterase. […] After being exposed to 50 nM BF or BF211 for 0.5, 1, 10, 30, 60 and 180 min, the cells were harvested, washed twice with PBS, and then incubated with Fluo-3 AM (5 μM) in the dark at 37°C for 1 h. After washing twice with PBS to remove the remaining extracellular probe, the cells were submitted to flow cytometric analysis with an excitation wavelength of 488nm. The quantification was conducted using the FlowJo software program based on the mean values of the peak fluorescent intensity.

[4] = molecular target: recombinant extracellular portion of human Na+/K+-ATPase α1 subunit (Homo sapiens, UniProt P05023); experiment: SPR (Biacore 3000) binding, α1 subunit
Procedure: (§3) The recombinant extracellular portion of human Na+/K+-ATPase α1 subunit (M1-M2, M3-M4, M5-M6, M7-M8 and M9-M10) was expressed as a His-fusion protein using Escherichia coli, and purified by affinity chromatography. […] The BamH I-Hind III fragment of the gene was subcloned into a pET-32b expression vector (Novagen) and transformed into E. coli BL21 (DE3) cells (Novagen). The BL21 transformants were cultivated in LB medium with ampicillin to an A600 nm of 0.8 at 37°C. Expression was induced by adding isopropyl β-D-thiogalactopyranoside (IPTG) to a final concentration of 10 mM, and incubated overnight at 20°C. The fusion protein containing a His-tag was isolated from the bacterial lysates by Ni^2+-chelation affinity chromatography using a Bio-Scale™ Mini Profinity™ IMAC Cartridge (Bio-Rad). Finally, the recombinant protein was desalted using a Bio-Scale™ Mini Bio-Gel P-6 Desalting Cartridge (Bio-Rad). The recombinant extracellular portions of the α2 and α3 subunits of human Na+/K+-ATPase were also expressed and purified using similar methods.
(§4) Briefly, for the SPR assay, the α1, α2 or α3 subunit protein was immobilized on a CM5 sensor chip as a ligand with N-ethyl-N’-(3-dimethylaminopropyl) carbodiimide (EDC) and N-hydroxysuccinimide (NHS) according to standard primary amine-coupling procedures. […] HBS-EP (10 mM HEPES, 150 mM NaCl, 3 mM EDTA, and 0.005% (v/v) surfactant P20, pH 7.4) was used as the running buffer. The equilibration of the baseline was performed by a continuous flow of HBS-EP through the chip surface for 1 to 2 h. The Biacore data were collected at 25°C with HBS-EP as the running buffer at a constant flow of 30 μL/min. […] The binding responses were recorded continuously in response units (RU) at a frequency of 1 Hz in sensorgrams and presented as a function of time.

NCI-H1299 cells = experiment: MTT cell proliferation assay, NCI-H1299; format: cell-based; settings: Homo sapiens; NCI-H1299, 72 h treatment; read-out: IC50 values, inhibiting proliferation
Procedure: as §1, §2

ICR mice [5] = settings: single dose i.p., Bliss method
Procedure: (§5) Therefore, totally 180 mice were used in the study of acute toxicity. […] During the 3 h observation period and other monitoring time periods, animals found in a moribund condition (head and body lying flat on cage bedding with little or no response to stimuli) and animals showing severe pain or severe distress (agonal breathing, intermittent gasping or both) were humanely killed. […] At the end of the experiment, all surviving animals were euthanized by CO2 inhalation. […] The LD50 value was calculated according to the Bliss method.

Src = experiment: Western blot of Src activation (p-Src); format: cell-based, human; settings: A549 cells, 50 nM
Procedure: Western blot assays were conducted as described previously. Briefly, the cellular protein samples were denatured by mixing with equal volume of 2 × sample loading buffer and then boiling at 100°C for 5 min. An aliquot (50 μg as protein) of the supernatant was loaded onto a 12% SDS gel, separated electrophoretically, and transferred to a Nitrocellulose membrane (Bio-Rad). After the membrane was incubated with 10 mM TBS with 20% Tween 20 and 5% dehydrated skim milk to block nonspecific protein binding, the membrane was incubated with primary antibodies overnight at 4°C. The primary antibodies used for detection of α1 and α3 subunit of Na+,K+-ATPase were rabbit polyclonal antibody against human ATP1A1 (55187, Proteintech, 1:1000) and ATP1A3 (sc-374050, Santa Cruz Biotechnology, 1:1000), respectively. Other primary antibodies including rabbit polyclonal antibody against human Src (#2109S, 1:1000), phosphor-Src(Tyr416) (#6943S, 1: 1000); PI3K p85 (#4257P, 1:1000), phosphor-PI3K p85(Tyr458)/p55(Tyr199) (#4228P, 1: 600), Akt (#9272, 1:1000), phosphor-Akt(Ser473) (#4060S, 1:800), Bax (#2772S, 1:1000), Pro-caspase-9 (#9502S, 1:800), Caspase-3 (#9662S, 1:800); PARP (#9542, 1:1000) and GAPDH (#2118, 1:1000) were all purchased from Cell Signaling Technology. After TBS washes, blots were then incubated with HRP-linked goat anti-rabbit IgG (#7074, 1:1000) secondary antibody for 2 h at room temperature at a 1:1000 dilution and then visualized using chemiluminescence (Pierce Biotechnology, Rockford, IL, USA).

[6] = molecular target: recombinant extracellular portion of human Na+/K+-ATPase α3 subunit (Homo sapiens, UniProt P13637); experiment: SPR (Biacore 3000) binding, α3 subunit
Chain of recombinant extracellular portion of human Na+/K+-ATPase α3 subunit (P13637 with tags, fused parts or gaps): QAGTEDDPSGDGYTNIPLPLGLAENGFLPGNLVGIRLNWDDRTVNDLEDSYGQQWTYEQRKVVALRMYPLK
Procedure: as §3, §4

[7] = test system: porcine cortex Na+/K+-ATPase; experiment: Na+/K+-ATPase activity (Pi liberated from ATP); format: biochemical; settings: for inhibition of the activity of porcine cortex Na+/K+-ATPase: different concentrations, 1 h incubation
Procedure: The activity of Na+/K+-ATPase was determined by measuring the amount of inorganic phosphate (Pi) liberated from ATP, as described previously. Briefly, a commercial Na+/K+-ATPase from porcine cerebral cortex (Sigma-Aldrich, USA) was incorporated into a reaction mixture containing 1 mM ATP, 5 mM MgCl2, 80 mM NaCl, 20 mM KCl, and 40 mM Tris-HCl (pH 7.8). The enzymatic reaction was terminated by adding trichloroacetic acid after the incubation period (1 h). After centrifugation, the supernatant was diluted with deionized water and then the color development reagent provided by the QuantiChrom™ Phosphate Assay Kit (BioAssay Systems, USA) was added. After 30 min of incubation at room temperature, the color intensity was measured at 620 nm on GENIOS reader (TEACAN, Switzerland). The Na+/K+-ATPase energy transducing activity was expressed as μmol Pi liberated from ATP by 1 mg of Na+/K+-ATPase in 1 h.

[8] = molecular target: recombinant extracellular portion of human Na+/K+-ATPase α2 subunit (Homo sapiens, UniProt P50993); experiment: SPR (Biacore 3000) binding, α2 subunit
Chain of recombinant extracellular portion of human Na+/K+-ATPase α2 subunit (P50993 with tags, fused parts or gaps): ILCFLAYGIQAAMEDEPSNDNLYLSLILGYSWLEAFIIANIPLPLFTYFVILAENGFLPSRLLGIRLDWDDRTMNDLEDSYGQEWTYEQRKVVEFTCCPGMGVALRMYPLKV
Procedure: as §3, §4

in vivo = settings: ICR, mouse, ip
Procedure: as §5

ICR mice [9] = settings: i.p., ref [14]; cited from earlier work
[10] = concentrations less than 2 mg/kg (0.8 mg/kg, or 0.4 then 1.6 mg/kg)

## C[C@]12CC[C@H](OC(=O)NC3CCNCC3)C[C@H]1CC[C@@H]1[C@@H]2CC[C@]2(C)[C@@H](c3ccc(=O)oc3)CC[C@]12O [BF211]
Tumor cell lines
  IC50 values, anticancer activities: nanomolar level
caspase-3, PARP
  activation of caspase-3 and cleavage of PARP: stronger than that of BF at high concentrations
NCI-H460 cells
  IC50: 68 ± 6.91 nM
A549 cells [1]; 24 h treatment
  IC50: 6.76 ± 0.41 nM
A549 cells [1]; 48 h treatment
  IC50: 4.01 ± 2.68 nM
NCI-H522 cells
  IC50: 48.3 ± 0.69 nM
caspase-3
  enzyme activity of caspase-3: significantly stronger than that of BF
A549 cells [2]
  induction of apoptosis: more strongly induced apoptosis than BF
A549 tumor xenografts; 6 mg/kg
  effect on tumor growth: almost totally blocked; also recorded: almost totally inhibited
A549 tumor xenografts; 2, 4, and 6 mg/kg
  effect on growth of tumor xenografts: concentration-dependent inhibitive effects
A549 tumor xenografts; 4 or 6 mg/kg
  effect on growth of tumor xenografts: strongly inhibited
A549 tumor xenografts; [10]
  effect on tumor growth: weak inhibitive effects
A549 cells [3]
  time of another (second) peak of intracellular Ca2+ level: 1800 s
  time of peak intracellular Ca2+ level: 0.5 min
[4]; read-out: Association (ka)
  kon: 17700 M⁻¹ s⁻¹
[4]; read-out: Dissociation (kd)
  koff: 0.0526 s⁻¹
[4]; α1, SPR, KD = kd/ka, read-out: Equilibrium dissociation (KD)
  Kd: 2960 nM
NCI-H1299 cells
  IC50: 40.1 ± 4.04 nM
ICR mice [5]; female mice
  LD5 (95% confidence): 12.03 mg/kg (10.04~14.41 mg/kg)
  LD95 (95% confidence): 27.55 mg/kg (22.56~33.66 mg/kg)
ICR mice [5]; male mice
  LD5 (95% confidence): 9.52 mg/kg (7.81~11.61 mg/kg)
  LD95 (95% confidence): 22.85 mg/kg (18.89~27.64 mg/kg)
Src; 1 h after treatment
  level of phosphorylated Src (p-Src): significant increase
Src; 3 h after treatment
  level of phosphorylated Src (p-Src): significant increase
[6]; 25°C, 1:1 Langmuir model, read-out: Association (ka)
  kon: 30700 M⁻¹ s⁻¹
[6]; 25°C, 1:1 Langmuir model, read-out: Dissociation (kd)
  koff: 0.116 s⁻¹
[6]; KD = kd/ka, read-out: Equilibrium dissociation (KD)
  Kd: 3.78 µM
[7]; at some concentrations, such as 0.1 μM
  inhibition of Na+/K+-ATPase activity compared with BF: slightly weaker than BF
[7]
  inhibition of the activity of porcine cortex Na+/K+-ATPase: concentration-dependent
[8]; read-out: Association (ka)
  kon: 9820 M⁻¹ s⁻¹
[8]; read-out: Dissociation (kd)
  koff: 0.0441 s⁻¹
[8]; α2, SPR, KD = kd/ka, read-out: Equilibrium dissociation (KD)
  Kd: 4.49 µM
In vivo; female
  LD50: 18.2 mg/kg
In vivo; male
  LD50: 14.8 mg/kg

## C[C@]12CC[C@H](O)C[C@H]1CC[C@@H]1[C@@H]2CC[C@]2(C)[C@@H](c3ccc(=O)oc3)CC[C@]12O [BF, Bufalin, reference compound]
caspase-3, PARP
  activation of caspase-3 and cleavage of PARP: could induce the activation of caspase-3 and the cleavage of PARP
NCI-H460 cells
  IC50: 114 ± 11.2 nM
A549 cells [1]; 48 h treatment
  IC50: 10.2 ± 1.01 nM
NCI-H522 cells
  IC50: 98.7 ± 2.76 nM
caspase-3
  enzyme activity of caspase-3: increase in the activity of caspase-3
A549 cells [2]
  induction of apoptosis: could induce apoptosis
A549 tumor xenografts; [10]
  effect on tumor growth: weak inhibitive effects
A549 cells [3]
  time of peak intracellular Ca2+ level: 0.5 min
NCI-H1299 cells
  IC50: 88.3 ± 11.9 nM
ICR mice [9]
  LD50: 2.2 mg/kg
Src; 1 h after treatment
  level of phosphorylated Src (p-Src): significant increase
[7]
  inhibition of the activity of porcine cortex Na+/K+-ATPase: concentration-dependent
